Laboratory results taken from PubChem BioAssay (NCI).
“And” between values parts separate entries of the source, which are not always exact repeats. Identical values can stand only once.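 Interpolation was linear, between the two tested concentrations surrounding the appropriate level; five concentrations were tested over 48 hours in 96-well plates. Abbreviation: GI50, concentration required for 50% inhibition of growth. Definition used: TGI = concentration required for complete inhibition of growth.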

Assays:
Experiment in all cases: NCI-60 cell line screen, 48 h
HOP-92 NSCLC = test system: HOP-92 NSCLC
SW-620 colon = test system: SW-620 colon
MDA-MB-435 = test system: MDA-MB-435
NCI-H522 lung = test system: NCI-H522 lung
KM12 colon = test system: KM12 colon
SNB-75 CNS = test system: SNB-75 CNS
SK-MEL-2 melanoma = test system: SK-MEL-2 melanoma
A549 NSCLC = test system: A549 NSCLC
A498 renal = test system: A498 renal
HOP-62 NSCLC = test system: HOP-62 NSCLC

Structure (SMILES)	GI50 (HOP-92 NSCLC)	TGI (HOP-92 NSCLC)	GI50 (SW-620 colon)	TGI (SW-620 colon)	GI50 (MDA-MB-435)	TGI (MDA-MB-435)	GI50 (NCI-H522 lung)	TGI (NCI-H522 lung)	GI50 (KM12 colon)	TGI (KM12 colon)	GI50 (SNB-75 CNS)	TGI (SNB-75 CNS)	GI50 (SK-MEL-2 melanoma)	TGI (SK-MEL-2 melanoma)	GI50 (A549 NSCLC)	TGI (A549 NSCLC)	GI50 (A498 renal)	TGI (A498 renal)	GI50 (HOP-62 NSCLC)	TGI (HOP-62 NSCLC)
N=C(N)c1ccc(-c2ccc(-c3ccco3)o2)cc1	1.38 µM	4.7 µM	1.92 µM	4.09 µM	1.83 µM	4.03 µM	3.73 µM	14.6 µM	3.16 µM	10.4 µM	10.7 µM	23.2 µM	2.41 µM	4.65 µM	4.76 µM	18.9 µM	6.58 µM	20 µM	10.4 µM	23 µM
COc1ccc2c(c1)Cc1cc(N=[N+]([O-])c3ccc4c(c3)Cc3cc(OC)ccc3-4)ccc1-2		> 100 µM		> 100 µM		> 100 µM		30.3 µM		> 100 µM		> 100 µM		> 100 µM		> 100 µM		95 µM		> 100 µM
COc1ccc(/C(C#N)=C/c2nc3c(N4CCOCC4)nc(Cl)nc3n2C)cc1OC	0.246 µM	2.94 µM	< 0.01 µM	1.63 µM	< 0.01 µM	< 0.01 µM	< 0.01 µM	1.28 µM	< 0.01 µM	1.26 µM	< 0.01 µM	< 0.01 µM	< 0.0228 µM	1.27 µM	< 0.01 µM	1.92 µM	< 0.01 µM	< 0.01 µM	< 0.01 µM	2.53 µM
C=C1c2c(C)nn(-c3ccccc3)c2N(C)C23C[C@@H]1C1(C)c4c(C)nn(-c5ccccc5)c4N(C)C(C)(C[C@H]12)C3 (stereo not given in full)	0.549 µM	5.53 µM			4.12 µM	> 100 µM	2.12 µM	7.73 µM					6.78 µM	22 µM	2.37 µM	> 100 µM	4.28 µM	45.9 µM	7.15 µM	25.9 µM
O=C(O)/C=C/C(=O)Nc1cccc2c1-c1ccccc1C2=O		> 100 µM		> 100 µM		9.14 µM		26.3 µM		> 100 µM		> 58.4 µM		32.9 µM		> 100 µM		> 100 µM		> 100 µM
CCSc1sc(-c2ccc(C)cc2)nc1[P+](c1ccccc1)(c1ccccc1)c1ccccc1	0.174 µM	0.593 µM	0.332 µM	1.34 µM	0.268 µM	0.801 µM	0.304 µM	1.23 µM	0.281 µM	1.16 µM	0.192 µM	0.802 µM	0.273 µM	0.805 µM			0.161 µM	0.597 µM	0.316 µM	1.38 µM
c1ccc2c(c1)N=c1ccccc1=P21c2ccccc2Nc2ccccc21		2.32 µM		13 µM		2.35 µM		0.913 µM		2.13 µM		4.67 µM		0.923 µM		15.3 µM		5.56 µM		8.32 µM
COc1cccc(-n2cnc3c(N/N=C/c4ccncc4)ncnc32)c1	> 10.4 µM	> 25 µM	> 25 µM	> 25 µM	12.4 µM	> 25 µM	> 14.6 µM	> 25 µM	7.84 µM	> 25 µM	7.45 µM	> 25 µM	11.6 µM	> 25 µM	17.6 µM	> 25 µM	7.1 µM	> 23.2 µM	> 25 µM	> 25 µM
CC(C)=CCNc1ncnc2c1ncn2C1OC(COP(=O)(O)O)C(O)C1O (stereo not given)	1.63 µM	5.1 µM	3.89 µM	> 100 µM	6.68 µM	> 100 µM	4.8 µM	89.4 µM	20.1 µM	> 100 µM	2.06 µM	34.1 µM	16.3 µM	99.8 µM	7.39 µM	> 100 µM	1.53 µM	3.3 µM	23.5 µM	> 100 µM
CN1CCN(c2nc(NCCNc3ccnc4cc(Cl)ccc34)c3ccccc3n2)CC1	1.13 µM	2.6 µM	0.391 µM	13.3 µM	1.85 µM	3.61 µM	1.64 µM	3.8 µM	2.43 µM	12.1 µM	1.84 µM	4.96 µM	1.98 µM	4.19 µM	1.44 µM	5.97 µM	12.3 µM	25.5 µM	2.73 µM	14.2 µM
CCCCCCCC(=O)SCC/C=C/[C@@H]1CC(=O)NCc2cccc(n2)CN(Cc2ccc(Cl)cc2)CC(=O)N[C@@H](C(C)C)C(=O)O1	8.76 µM	41.8 µM	18 µM	> 100 µM	6.06 µM	> 100 µM	6.82 µM	54.1 µM	9.4 µM	65.1 µM	5.74 µM	> 100 µM	13.3 µM	> 100 µM	12.1 µM	97.7 µM	8.67 µM	22.8 µM	5.4 µM	44.4 µM
CCCCCc1c(C)[nH]c(/C=C2\N=C(c3ccc[nH]3)C=C2Oc2ccc(OC)cc2)c1C	0.145 µM and 0.0153 µM	0.575 µM and 0.101 µM	0.0587 µM and 0.0252 µM	1.53 µM and 0.518 µM	0.149 µM and 0.0331 µM	0.387 µM and 0.153 µM	0.0135 µM	0.19 µM	0.0555 µM and 0.0314 µM	0.622 µM and 0.185 µM	0.204 µM and 0.0328 µM	0.559 µM and 0.316 µM	0.116 µM and 0.0299 µM	0.302 µM and 0.0836 µM	0.0339 µM	0.165 µM	0.194 µM and 0.0304 µM	1.19 µM and 0.234 µM	0.159 µM and 0.0768 µM	1.69 µM and 1.49 µM
Cc1c(Br)cccc1NC(=O)c1sc2nc3c(cc2c1N)CN(Cc1ccccc1)CC3	0.509 µM	10.7 µM	0.164 µM	7.15 µM	0.0366 µM	0.141 µM	0.108 µM	> 50 µM	0.168 µM	10.2 µM	0.28 µM	17.1 µM	0.231 µM	15.1 µM	0.491 µM	19.6 µM	0.186 µM	3.89 µM	0.204 µM	4.44 µM
COC1=C(NC(C)=O)C(=O)c2nc3n(c2C1=O)CCC3		26.2 µM		42.4 µM		9.97 µM		40.1 µM		> 57.8 µM		41.2 µM		32.7 µM		> 69.9 µM		50.2 µM		39.9 µM
N#CC1=C(N)Oc2c(sc3c(F)cccc23)C1c1ccc(Cl)cc1 (stereo not given)	3.71 µM	19.2 µM	3.47 µM	16.3 µM	0.616 µM	2.7 µM	1.93 µM	11.7 µM	2.75 µM	18.9 µM	2.27 µM	10 µM	3.49 µM	15.5 µM	4.24 µM	17.5 µM	2.57 µM	11.2 µM	2.99 µM	15.7 µM
CC(CC(C)[C@H]1CCC2[C@H]3C(CC[C@@]21C)[C@@]1(C)CCC(O)C[C@H]1C[C@@H]3O)C(=O)O (stereo not given in full)		> 100 µM		> 100 µM		> 100 µM		> 100 µM		> 100 µM		> 100 µM		> 100 µM		> 100 µM		> 100 µM		> 100 µM
CC(=O)c1c[nH]c2ccc(-c3ccnc(Nc4ccc(NC(=O)c5cccc(F)c5)c(CN5CCOCC5)c4)n3)cc12	0.154 µM	1.17 µM	0.206 µM	4.82 µM	0.204 µM	1.47 µM	0.234 µM	1.61 µM	0.0892 µM	1.35 µM	0.042 µM	0.342 µM	0.18 µM	0.549 µM	0.185 µM	> 35.5 µM	0.102 µM	0.38 µM	0.221 µM	18.7 µM
Nc1ncnc2c1ncn2C1OC(CO)C(O)C1O (stereo not given)			19.3 µM	> 450 µM	38.8 µM	> 100 µM		> 295 µM		> 450 µM	11.6 µM	> 100 µM and 331 µM and 38.2 µM		> 100 µM and > 450 µM and 75.7 µM	22.3 µM	> 388 µM	93.2 µM and 43.5 µM and 55.1 µM	> 100 µM	11.7 µM	> 100 µM and 184 µM and 47.9 µM
Cc1cc(CC(O)(C(F)(F)F)C(F)(F)F)cc(CC(O)(C(F)(F)F)C(F)(F)F)n1		5.48 µM		> 100 µM		8.26 µM		6.35 µM		5.13 µM		6.58 µM		5.45 µM		10.9 µM		7.87 µM		8.79 µM
NS(=O)(=O)OC[C@H]1O[C@@H](n2cnc3c(N[C@H]4CCc5ccccc54)ncnc32)[C@H](O)[C@@H]1O	0.475 µM	0.799 µM	0.245 µM	5.82 µM	0.114 µM	0.351 µM	0.0271 µM	0.192 µM	0.525 µM	2.58 µM	0.358 µM	1 µM	0.098 µM	0.434 µM	0.871 µM	3 µM	0.0288 µM	0.124 µM	0.0569 µM	0.485 µM
Nc1nc(Cl)cc2c1ncn2C1OC(CO)C(O)C1O (stereo not given)	> 100 µM	> 100 µM	> 100 µM	> 100 µM	> 100 µM	> 100 µM	> 100 µM	> 100 µM	> 100 µM	> 100 µM	> 100 µM	> 100 µM	> 100 µM	> 100 µM	> 100 µM	> 100 µM	> 100 µM	> 100 µM	> 100 µM	> 100 µM
CC(=O)O/N=C1\C=Cc2c(no[n+]2[O-])C1=O				9.04 µM		36 µM		32.8 µM		33.7 µM		35.5 µM		32.7 µM		31.1 µM		30.3 µM		> 100 µM
COC1=CC(=O)c2c(O)c3c(c(O)c2C1=O)CC(C)(O)OC3 (stereo not given)		10.5 µM		12.7 µM		3.05 µM		7.24 µM		> 35.8 µM		> 67.6 µM		9.9 µM		8.8 µM		25.2 µM		12.7 µM
COc1ccc(CNCCN2C(=O)c3ccc4c5c(ccc(c35)C2=O)C(=O)N(CCNCc2ccc(OC)cc2)C4=O)cc1	0.788 µM	2.68 µM	0.168 µM	0.506 µM	0.189 µM	0.375 µM	0.413 µM	1.92 µM	0.2 µM	0.623 µM	1.15 µM	2.48 µM	0.313 µM	1.14 µM	0.329 µM	1.28 µM	0.647 µM	2.02 µM	0.579 µM	1.99 µM
C=CC[n+]1c(/C=C2\Sc3ccccc3N2C)sc(-c2ccccc2)c1-c1ccccc1	0.155 µM	0.571 µM	0.366 µM	13.3 µM	0.335 µM	1.68 µM	0.22 µM	0.76 µM	0.331 µM	1.95 µM	0.298 µM				0.339 µM	11 µM	0.264 µM	2.32 µM	0.302 µM	4.75 µM
O=C(/C=C/c1ccccc1O)CC(=O)/C=C/c1ccccc1O		53.7 µM		24 µM		> 31.6 µM		9.83 µM				> 78.7 µM		17 µM		26.9 µM		51.3 µM		19.4 µM
CC1CCC(O)/C=C/C(=O)OC(C)C(O)/C=C/C(=O)O1 (stereo not given)		> 100 µM		> 100 µM		> 100 µM		> 58.6 µM		> 100 µM		> 100 µM		> 100 µM		> 100 µM		> 100 µM		> 100 µM
COC(=O)c1ccc2c(c1)[n+](=O)c(C(C)=O)c(C(F)(F)F)n2[O-]	1.48 µM	3.14 µM	1.95 µM	3.83 µM	1.75 µM	3.6 µM	1.66 µM	3.28 µM	1.76 µM	3.19 µM	1.4 µM	2.71 µM	2.23 µM	4.8 µM	1.96 µM	3.7 µM	1.72 µM	3.3 µM	1.94 µM	3.69 µM
COc1cc(C2CC(c3ccc(C)cc3)=NN2C(C)=O)ccc1Oc1ccnc2cc(Cl)ccc12 (stereo not given)	30.1 µM	> 100 µM	> 100 µM	> 100 µM	> 100 µM	> 100 µM	> 100 µM	> 100 µM	> 100 µM	> 100 µM	0.482 µM	5.93 µM	15.8 µM	43.2 µM			13.1 µM	78 µM	4.3 µM	> 100 µM
